This is an account of results in PubChem BioAssay (NCI).

“And” between values parts separate entries of the source, which are not always exact repeats. Equal values may be shown once.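 Method: 48-hour compound exposure of cells in 96-well plates, five concentrations, linear interpolation of endpoints. Here, GI50 denotes the concentration required for 50% inhibition of growth. TGI: total growth inhibition.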 Where a SMILES comes first, the peptide text is derived from it. The star is where a group is joined. Fmoc = O=C(OCC1c2ccccc2-c2ccccc21)*; OBn = c1ccc(CO*)cc1; tBu = CC(C)(C)* Bounds are passed on as bounds.

Test systems include RPMI-8226 leukemia; EKVX NSCLC; COLO 205 colon; KM12 colon; MOLT-4 leukemia; MALME-3M melanoma; HOP-62 NSCLC; MDA-MB-231 breast; NCI-H522 lung; A498 renal.
Common to all, as to test: inhibition of tumour cell growth, NCI panel, 48 h

For the compound `Clc1ccc(-c2nn3c(COc4ccc(OCc5nnc6sc(-c7ccc(Cl)cc7)nn56)c(Cl)c4)nnc3s2)cc1`, the TGI in the experiment with RPMI-8226 leukemia, with EKVX NSCLC, in the experiment on COLO 205 colon, in the experiment with KM12 colon, in the experiment on MOLT-4 leukemia and with MALME-3M melanoma was greater than 100 µM in each case. For the same compound, the TGI with HOP-62 NSCLC is 77.7 µM; with MDA-MB-231 breast, greater than 100 µM; with NCI-H522 lung, 37.4 µM; in the experiment with A498 renal, 71.1 µM.
In the case of `CC[P+](c1ccccc1)(N(C)C)N(C)C`, the TGI in the experiment on RPMI-8226 leukemia, in the experiment on EKVX NSCLC, with COLO 205 colon, in the experiment with KM12 colon, with MOLT-4 leukemia and with MALME-3M melanoma was greater than 100 µM each time. Further, the TGI in the experiment on HOP-62 NSCLC, with MDA-MB-231 breast, with NCI-H522 lung and with A498 renal was greater than 100 µM in each case.
As for `COc1cc(/C=C2\C(=O)N(c3ccc(Cl)cc3)C(c3ccccc3)S2(=O)=O)cc(OC)c1OC` (centres undefined), the TGI with RPMI-8226 leukemia was greater than 100 µM; in the experiment with EKVX NSCLC, greater than 100 µM; in the experiment on COLO 205 colon it was greater than 32.8 µM; in the experiment with KM12 colon it was 99.3 µM; in the experiment with MOLT-4 leukemia, greater than 100 µM; in the experiment with MALME-3M melanoma, greater than 100 µM. Further, the TGI with HOP-62 NSCLC is greater than 96.7 µM; in the experiment on MDA-MB-231 breast, greater than 100 µM; with NCI-H522 lung, 60.5 µM; in the experiment on A498 renal it was greater than 100 µM.
In the case of `CC(OC(C)(C)C)C(NC(=O)OCC1c2ccccc2-c2ccccc21)C(=O)NC(Cc1ccccc1)C(=O)OCc1ccccc1` (centres undefined) (Fmoc-Thr(tBu)-Phe-OBn; configuration not given here), the TGI in the experiment with RPMI-8226 leukemia, with EKVX NSCLC, in the experiment with COLO 205 colon, with KM12 colon, with MOLT-4 leukemia and with MALME-3M melanoma was greater than 100 µM throughout. Further, the TGI with HOP-62 NSCLC, in the experiment on MDA-MB-231 breast, in the experiment on NCI-H522 lung and in the experiment with A498 renal was greater than 100 µM in each case.
On to `CC(=O)CCN1CC2CN=NC2(C#N)C1` (centres undefined), for which, in the experiment with RPMI-8226 leukemia, the GI50 was greater than 100 µM. The TGI with RPMI-8226 leukemia is greater than 100 µM; with EKVX NSCLC, greater than 100 µM; in the experiment on COLO 205 colon, greater than 100 µM; with KM12 colon, greater than 100 µM; with MOLT-4 leukemia it was greater than 56.7 µM; with MALME-3M melanoma, greater than 100 µM. Further, the TGI in the experiment on HOP-62 NSCLC is greater than 100 µM; in the experiment on MDA-MB-231 breast it was greater than 100 µM; in the experiment on NCI-H522 lung, greater than 20.9 µM; in the experiment on A498 renal, greater than 100 µM.
With `CN(C)CCCNC(=O)N/N=C/c1ccccn1`, the TGI with RPMI-8226 leukemia, with EKVX NSCLC, with COLO 205 colon, in the experiment with KM12 colon, in the experiment with MOLT-4 leukemia and in the experiment on MALME-3M melanoma was greater than 10 µM in each case. In addition, the TGI with HOP-62 NSCLC, with MDA-MB-231 breast, in the experiment with NCI-H522 lung and with A498 renal was greater than 10 µM each time.
With `CCOC(=O)c1c(-c2ccc(Cl)cc2)c(C#N)c(=S)n(C2OC(COC(C)=O)C(OC(C)=O)C(OC(C)=O)C2OC(C)=O)c1C` (centres undefined), in the experiment with RPMI-8226 leukemia, the GI50 was 36.1 µM. Besides, the TGI in the experiment on RPMI-8226 leukemia, in the experiment with EKVX NSCLC, in the experiment on COLO 205 colon, in the experiment with KM12 colon, in the experiment on MOLT-4 leukemia and with MALME-3M melanoma was greater than 100 µM each time. In addition, the TGI with HOP-62 NSCLC, in the experiment with MDA-MB-231 breast, in the experiment on NCI-H522 lung and with A498 renal was greater than 100 µM in each case.
Regarding `COC(=O)c1c2c(cc3c1CC1(Cc4cc5c(cc4C1)CCCC5)C3)CCCC2`, the TGI in the experiment on RPMI-8226 leukemia, in the experiment on EKVX NSCLC, in the experiment on COLO 205 colon, with KM12 colon, in the experiment with MOLT-4 leukemia and with MALME-3M melanoma was greater than 100 µM in each case. The TGI with HOP-62 NSCLC, in the experiment on MDA-MB-231 breast, in the experiment with NCI-H522 lung and with A498 renal was greater than 100 µM in each case.
As for `Nc1ncnc2c1ncn2CCCNO`, the TGI in the experiment with RPMI-8226 leukemia, in the experiment with EKVX NSCLC, with COLO 205 colon, with KM12 colon, with MOLT-4 leukemia and in the experiment with MALME-3M melanoma was greater than 100 µM throughout. Besides, the TGI in the experiment with HOP-62 NSCLC, with MDA-MB-231 breast, with NCI-H522 lung and in the experiment with A498 renal was greater than 100 µM each time.
With `NCC1OC(OC2C(N)CC(N)C(O)C2OC2OC(CO)C(O)C2O)C(N)C(O)C1O` (centres undefined), the GI50 in the experiment on RPMI-8226 leukemia was 48 µM and > 100 µM; in the experiment on COLO 205 colon it was greater than 100 µM. Further, the TGI in the experiment on RPMI-8226 leukemia, in the experiment on EKVX NSCLC, with COLO 205 colon, with KM12 colon, in the experiment on MOLT-4 leukemia and in the experiment on MALME-3M melanoma was greater than 100 µM each time. Besides, the TGI in the experiment on HOP-62 NSCLC was greater than 50 µM; in the experiment on MDA-MB-231 breast it was greater than 100 µM; in the experiment on NCI-H522 lung, greater than 100 µM; in the experiment on A498 renal it was greater than 100 µM.
Turning to `CCOc1ccc(Nc2nc(N)nc(N)c2N=O)cc1`, the TGI in the experiment on RPMI-8226 leukemia was greater than 100 µM; with EKVX NSCLC, greater than 100 µM; in the experiment with COLO 205 colon it was greater than 100 µM; in the experiment with KM12 colon, greater than 100 µM; in the experiment with MOLT-4 leukemia, 76.6 µM; in the experiment on MALME-3M melanoma, greater than 100 µM. Also, the TGI in the experiment with HOP-62 NSCLC, in the experiment with MDA-MB-231 breast, with NCI-H522 lung and in the experiment with A498 renal was greater than 100 µM throughout.
Regarding `c1ccc(CN2CCC(CNc3ncnc4ccccc34)C2)cc1` (centres undefined), the TGI in the experiment with RPMI-8226 leukemia was 38.7 µM; in the experiment with EKVX NSCLC, greater than 100 µM; in the experiment on COLO 205 colon, greater than 100 µM; in the experiment with KM12 colon it was greater than 100 µM; with MOLT-4 leukemia, greater than 100 µM; in the experiment with MALME-3M melanoma, 43 µM. For the same compound, the TGI in the experiment with HOP-62 NSCLC, in the experiment with MDA-MB-231 breast, with NCI-H522 lung and in the experiment with A498 renal was greater than 100 µM throughout.
On to `CCOC(=O)NC(Nc1ccc(C(=O)O)cc1)(C(F)(F)F)C(F)(F)F`, for which the TGI in the experiment with RPMI-8226 leukemia, in the experiment with EKVX NSCLC, in the experiment on COLO 205 colon, with KM12 colon, in the experiment on MOLT-4 leukemia and with MALME-3M melanoma was greater than 100 µM in each case. The TGI in the experiment on HOP-62 NSCLC, in the experiment with MDA-MB-231 breast, with NCI-H522 lung and in the experiment with A498 renal was greater than 100 µM throughout.
As for `Cn1c(COC(=O)NC2CCCCC2)c(COC(=O)NC2CCCCC2)c2ccc3ccccc3c21`, the TGI in the experiment on RPMI-8226 leukemia, in the experiment with EKVX NSCLC, with COLO 205 colon, in the experiment on KM12 colon, in the experiment with MOLT-4 leukemia and with MALME-3M melanoma was greater than 100 µM in each case. For the same compound, the TGI in the experiment on HOP-62 NSCLC is greater than 100 µM; with MDA-MB-231 breast it was greater than 100 µM; with NCI-H522 lung, 31.5 µM; in the experiment on A498 renal, 32 µM.
